According to paper PMC7759869 (Biomedicines, 2020):
Where two headings read alike, the source gives them in different places. Marks after values point to notes of the source that are not given here.

Legend:
[1] = molecular target: cabozantinib oxidation in pooled human liver microsomes (Homo sapiens, UniProt P08684); test: Inhibition study: effect of CYP inhibitors on cabozantinib oxidation in pooled human liver microsomes; settings: pooled human liver microsomes, 50 µM cabozantinib
Method: (§1) Inhibition studies in pooled human liver microsomes were conducted with six inhibitors. […] The IC50 values for employed inhibitors were determined by the procedure described previously. […] Then, mixtures were incubated for a further 20 min at 37 °C.

human liver microsomes [2] = test: Oxidation of cabozantinib by hepatic microsomes of individual human donors (HPLC of metabolites); assay type: in vitro ADME; settings: 50 µM cabozantinib, 20 min
human liver microsomes [3] = test: Correlation of CYP- and FMO-linked catalytic activities with amounts of cabozantinib metabolites formed in microsomes; assay type: in vitro ADME; settings: twelve human microsomal samples; for Correlation coefficient (r) with CYP2C19 activity: (S)-Mephenytoin-4′-hydroxylase; for Correlation coefficient (r) with CYP2B6 activity: (S)-Mephenytoin-N-demethylase; for Correlation coefficient (r) with CYP2D6 activity: Buferalol-1′-hydroxylase; for Correlation coefficient (r) with CYP2E1 activity: Chlorzoxazone-6-hydroxylase; for Correlation coefficient (r) with CYP2A6 activity: Coumarine-7-hydroxylase; for Correlation coefficient (r) with CYP2C9 activity: Diclofenac-4′-hydroxylase; for Correlation coefficient (r) with CYP4A11 activity: Lauric acid-12-hydroxylase; for Correlation coefficient (r) with FMO activity: Methyl-p-tolyl sulfide oxidase; for Correlation coefficient (r) with CYP2C8 activity: Paclitaxel-6α-hydroxylase; for Correlation coefficient (r) with CYP1A2 activity: Phenacetin-O-deethylase; for Correlation coefficient (r) with Total CYPs: amount of metabolite formed vs total CYP content
Method: Data are expressed as mean ± SD. Data were analyzed using GraphPad Prism 7 (San Diego, CA, USA) using ANOVA with post-hoc Tukey HSD Test. All p-values are two-tailed and considered significant at the 0.05 level. […] Correlation coefficients (r) were based on a sample size of twelve for human microsomes. All p-values are two-tailed and considered significant at the 0.05 level.
To clarify these correlations, multivariate analysis was used to investigate the dependence of metabolite formation on these CYP activities. Activities of CYP2A6, -2B6 and -2C8 in each microsomal sample were combined in pairs with the activities of CYP3A4 to see if any combination of the activities led to an improvement in the correlation with CYP3A4.

CYP3A4 = CYP3A4 (Homo sapiens, UniProt P08684); test: Kinetics of cabozantinib oxidation by recombinant CYP3A4 (Supersomes); assay type: in vitro ADME; parameters: purchased Corning (Corning, NY, USA); host or cells: insect cells (baculovirus); settings: formation of the metabolite from cabozantinib by CYP3A4 without cyt b5
Text: Cabozantinib was from MedChemExpress (Monmouth Junction, NJ, USA). Standard of cabozantinib N-oxide was purchased from Toronto Research Chemicals (Toronto, Canada). Ketoconazole, NADPH and other chemicals were all purchased from Merck (Darnstadt, Germany). The purity of all chemicals met the standards of American Chemical Society, unless otherwise noted. Male human hepatic microsomes (pooled sample) (sample LOT: 3043885) were from Gentest Corp. (Woburn, MA, USA). Microsomes from livers of twelve human donors were obtained from Gentest Corp. (Woburn, MA, USA) (Lot. no. HG43-1, HG103, HG74, HG93, HG24, HG27, HG23, HG32, HK31, HK34, HG03 and HG42). Each human microsomal sample was characterized for CYP, FMO, total protein contents and specific CYP activities by Gentest Corp. and reanalyzed by us by assays described in the protocols of Gentest Corp. Our data were similar to those reported by Gentest Corp. (Table 1). Human recombinant enzymes were used in the forms of Supersomes™ and obtained from Corning (Corning, NY, USA). In Supersomes™, microsomal fractions were isolated from insect cells that were transfected with baculovirus constructs containing cDNA of human CYP enzymes (CYP1A1/2, 1B1, 2A6, 2B6, 2C8/9/18/19/, 2D6, 2E1, 3A4). The Supersomes™ also express NADPH:CYP oxidoreductase (POR). […]

CYP3A4 + cyt b5 = molecular target: T1, CYP3A4 + cyt b5 (Homo sapiens, UniProt P08684); test: Cabozantinib oxidation by recombinant CYP3A4 in the presence of cyt b5 (Supersomes); assay type: in vitro ADME; settings: for VMax: formation of the metabolite from cabozantinib by CYP3A4 + cyt b5
T1 construct: purchased Corning (Corning, NY, USA); host or cells: insect cells (baculovirus)
Text: (§2) Cabozantinib was from MedChemExpress (Monmouth Junction, NJ, USA). Standard of cabozantinib N-oxide was purchased from Toronto Research Chemicals (Toronto, Canada). Ketoconazole, NADPH and other chemicals were all purchased from Merck (Darnstadt, Germany). The purity of all chemicals met the standards of American Chemical Society, unless otherwise noted. Male human hepatic microsomes (pooled sample) (sample LOT: 3043885) were from Gentest Corp. (Woburn, MA, USA). Microsomes from livers of twelve human donors were obtained from Gentest Corp. (Woburn, MA, USA) (Lot. no. HG43-1, HG103, HG74, HG93, HG24, HG27, HG23, HG32, HK31, HK34, HG03 and HG42). Each human microsomal sample was characterized for CYP, FMO, total protein contents and specific CYP activities by Gentest Corp. and reanalyzed by us by assays described in the protocols of Gentest Corp. Our data were similar to those reported by Gentest Corp. (Table 1). Human recombinant enzymes were used in the forms of Supersomes™ and obtained from Corning (Corning, NY, USA). In Supersomes™, microsomal fractions were isolated from insect cells that were transfected with baculovirus constructs containing cDNA of human CYP enzymes (CYP1A1/2, 1B1, 2A6, 2B6, 2C8/9/18/19/, 2D6, 2E1, 3A4). The Supersomes™ also express NADPH:CYP oxidoreductase (POR). However, because they are microsomes (particles of broken endoplasmic reticulum), other enzymes (proteins) of the endoplasmic reticulum membrane (like NADH:cytochrome b5 reductase and cytochrome b5) are also expressed at basal levels in these Supersomes™. We also utilized Supersomes™, which overexpressed cytochrome b5, in a molar ratio of CYP to cytochrome b5 of 1 to 5. In Supersomes™, where cytochrome b5 was not overexpressed (see above), pure cytochrome b5 was added to reach a molar ratio of CYP to cytochrome b5 of 1 to 5. Reconstitution of Supersomes™ with purified cytochrome b5 was performed as described previously. Human recombinant FMOs and AO were also used in the forms of Supersomes™ (Gentest Corp., Woburn, MA, USA). These microsomal fractions were isolated from insect cells that are transfected with baculovirus constructs containing cDNA of human FMO1, FMO3, FMO5 or AO enzymes.
(§3) The reaction was initiated by adding NADPH. In control incubations, either microsomes or CYP (FMO, AO) or NADPH were omitted. […] The reaction was stopped by extraction with ethyl acetate (2 × 1 mL). […] Cabozantinib metabolites separated by HPLC were characterized by mass spectroscopy (see further details below).

human liver microsomes [4] = test: Oxidation of cabozantinib by hepatic microsomes of individual human donors (HPLC of metabolites); assay type: in vitro ADME; settings: 50 µM cabozantinib, 20 min; remark: listed apart in the source
Text: as §2, §3

CYPs in human liver = test: Contributions of CYP enzymes to formation of cabozantinib metabolites in human livers; assay type: in vitro ADME; settings: calculated from velocities with cyt b5 and CYP expression levels in human liver
VEGFR2 = settings: read-out: IC50 for VEGFR2; estimated; cited from earlier work
MET = settings: read-out: IC50 for MET; estimated; cited from earlier work
RET = settings: estimated; cited from earlier work
[5] = molecular target: CYP3A (cabozantinib oxidation: formation of monohydroxy cabozantinib) (Homo sapiens, UniProt P08684); test: Inhibition study: effect of CYP inhibitors on cabozantinib oxidation in pooled human liver microsomes; settings: human
Method: as §1

[6] = molecular target: CYP3A (cabozantinib oxidation: formation of cabozantinib N-oxide) (Homo sapiens, UniProt P08684); test: as above; settings: human
Method: as §1

[7] = molecular target: CYP3A (cabozantinib oxidation: formation of desmethyl cabozantinib) (Homo sapiens, UniProt P08684); test: as above; settings: human
Method: as §1

[8] = human liver microsomes sample HK23
[9] = human liver microsomes sample HK27
[10] = human liver microsomes sample HG03
[11] = human liver microsomes sample HG24
[12] = human liver microsomes sample HG32
[13] = human liver microsomes sample HG42
[14] = human liver microsomes sample HG43
[15] = human liver microsomes sample HG74
[16] = human liver microsomes sample HG93
[17] = human liver microsomes sample HG103
[18] = human liver microsomes sample HK31
[19] = human liver microsomes sample HK34

Chain of cabozantinib oxidation in pooled human liver microsomes (P08684 2-503): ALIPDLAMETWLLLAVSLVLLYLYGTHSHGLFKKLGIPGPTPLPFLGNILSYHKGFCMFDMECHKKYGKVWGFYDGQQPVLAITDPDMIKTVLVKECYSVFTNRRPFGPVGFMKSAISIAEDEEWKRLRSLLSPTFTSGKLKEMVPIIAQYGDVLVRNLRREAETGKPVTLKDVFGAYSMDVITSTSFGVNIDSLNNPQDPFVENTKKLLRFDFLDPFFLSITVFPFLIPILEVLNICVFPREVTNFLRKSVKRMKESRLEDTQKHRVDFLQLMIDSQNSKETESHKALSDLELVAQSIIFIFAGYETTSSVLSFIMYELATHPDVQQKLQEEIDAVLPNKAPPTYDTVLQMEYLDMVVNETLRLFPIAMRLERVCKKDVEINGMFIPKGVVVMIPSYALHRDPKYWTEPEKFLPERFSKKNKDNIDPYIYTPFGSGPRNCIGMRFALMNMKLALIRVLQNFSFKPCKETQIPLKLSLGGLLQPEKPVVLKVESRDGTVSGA
T1 sequence (P08684 whole entry): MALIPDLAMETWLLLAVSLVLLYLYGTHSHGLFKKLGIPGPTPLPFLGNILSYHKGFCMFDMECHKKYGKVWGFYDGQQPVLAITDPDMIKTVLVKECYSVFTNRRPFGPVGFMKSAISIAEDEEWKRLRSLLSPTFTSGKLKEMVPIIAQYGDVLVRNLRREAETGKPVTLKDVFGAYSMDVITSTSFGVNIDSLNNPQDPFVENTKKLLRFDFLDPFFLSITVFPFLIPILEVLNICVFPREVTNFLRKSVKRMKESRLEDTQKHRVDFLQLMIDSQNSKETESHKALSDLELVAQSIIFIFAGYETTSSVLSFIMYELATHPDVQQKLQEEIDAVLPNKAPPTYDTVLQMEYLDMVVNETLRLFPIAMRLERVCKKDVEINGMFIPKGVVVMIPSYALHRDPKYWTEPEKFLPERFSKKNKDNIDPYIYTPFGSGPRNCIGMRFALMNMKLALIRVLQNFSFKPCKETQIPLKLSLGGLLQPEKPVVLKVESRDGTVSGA
Chain of CYP3A4 (P08684 whole entry): as above
Chain of CYP3A (cabozantinib oxidation: formation of desmethyl cabozantinib) (P08684 2-503): as the sequence (P08684 2-503) above
Chain of CYP3A (cabozantinib oxidation: formation of cabozantinib N-oxide) (P08684 2-503): as above
Chain of CYP3A (cabozantinib oxidation: formation of monohydroxy cabozantinib) (P08684 2-503): as above

Row | Amounts of cabozantinib metabolites (human liver microsomes [2]; [8]) [peak area/incubation time] | Amounts of cabozantinib metabolites (human liver microsomes [2]; [9]) [peak area/incubation time] | Correlation coefficient (r) with CYP2C19 activity (human liver microsomes [3]) | Correlation coefficient (r) with CYP2B6 activity (human liver microsomes [3]) | Correlation coefficient (r) with CYP2D6 activity (human liver microsomes [3]) | Correlation coefficient (r) with CYP2E1 activity (human liver microsomes [3]) | Correlation coefficient (r) with CYP2A6 activity (human liver microsomes [3]) | Correlation coefficient (r) with CYP2C9 activity (human liver microsomes [3]) | Correlation coefficient (r) with CYP4A11 activity (human liver microsomes [3]) | Correlation coefficient (r) with FMO activity (human liver microsomes [3]) | Correlation coefficient (r) with CYP2C8 activity (human liver microsomes [3]) | Correlation coefficient (r) with CYP1A2 activity (human liver microsomes [3]) | Correlation coefficient (r) with Total CYPs (human liver microsomes [3]) | VMax (CYP3A4) [peak area/min/nmol CYP] | VMax (CYP3A4 + cyt b5) [peak area/min/nmol CYP] | Amounts of cabozantinib metabolites (human liver microsomes [4]; [10]) [peak area/incubation time] | Amounts of cabozantinib metabolites (human liver microsomes [4]; [11]) [peak area/incubation time] | Amounts of cabozantinib metabolites (human liver microsomes [4]; [12]) [peak area/incubation time] | Amounts of cabozantinib metabolites (human liver microsomes [4]; [13]) [peak area/incubation time] | Amounts of cabozantinib metabolites (human liver microsomes [4]; [14]) [peak area/incubation time] | SMILES | further results
1 | – | – | – | – | – | – | – | – | – | – | – | – | – | – | – | – | – | – | – | – | Cc1ccc(-c2c(-c3nn(C)c4ncnc(N5CC[C@H](N6CCCCC6)C5)c34)cnn2C)cc1 [CYP3cide] | IC50 ([1]; read-out: IC50 for inhibition of formation of cabozantinib N-oxide): < 10 nM; IC50 ([1]; read-out: IC50 for inhibition of formation of desmethyl cabozantinib): < 10 nM; IC50 ([1]; read-out: IC50 for inhibition of formation of monohydroxy cabozantinib): 1120 nM
2 | 0.130 | 0.467 | 0.033 | 0.695 * | −0.015 | 0.140 | 0.841 *** | 0.086 | 0.193 | 0.315 | 0.654 * | 0.280 | 0.794 ** | 1.44 ± 0.03 | 5.70 ± 0.24 | 0.335 | 0.149 | 0.185 | 0.329 | 0.625 | COc1cc2c(Oc3ccc(NC(=O)C4(C(=O)Nc5ccc(F)cc5)CC4)cc3)ccnc2cc1O [M2, desmethyl cabozantinib] | Amounts of cabozantinib metabolites (human liver microsomes [4]; [15]): 0.256 peak area/incubation time; Amounts of cabozantinib metabolites (human liver microsomes [4]; [16]): 0.371 peak area/incubation time; Amounts of cabozantinib metabolites (human liver microsomes [4]; [17]): 0.144 peak area/incubation time; Amounts of cabozantinib metabolites (human liver microsomes [4]; [18]): 0.377 peak area/incubation time; Amounts of cabozantinib metabolites (human liver microsomes [4]; [19]): 0.305 peak area/incubation time; Contribution of CYPs other than CYP3A4 to formation of the metabolite in human liver (CYPs in human liver): less than 1%
3 | 0.607 | 2.228 | −0.021 | 0.776 ** | −0.043 | 0.030 | 0.728 ** | 0.130 | 0.223 | 0.341 | 0.737 ** | 0.216 | 0.811 ** | 1.54 ± 0.04 | 9.96 ± 0.92 | 1.672 | 0.752 | 1.338 | 1.609 | 3.491 | COc1cc2c(Oc3ccc(NC(=O)C4(C(=O)Nc5ccc(F)cc5)CC4)cc3)cc[n+]([O-])c2cc1OC [M3, cabozantinib N-oxide] | IC50 (VEGFR2): 140 nM; Increase of oxidation / metabolite formation by co-expression of cyt b5 with CYP3A4 (CYP3A4 + cyt b5; Supersomes with cyt b5 vs without, 50 µM cabozantinib): 4.6 fold; IC50 (MET): 190 nM; Amounts of cabozantinib metabolites (human liver microsomes [4]; [15]): 1.106 peak area/incubation time; Amounts of cabozantinib metabolites (human liver microsomes [4]; [16]): 1.935 peak area/incubation time; Amounts of cabozantinib metabolites (human liver microsomes [4]; [17]): 0.644 peak area/incubation time; Amounts of cabozantinib metabolites (human liver microsomes [4]; [18]): 1.537 peak area/incubation time; Amounts of cabozantinib metabolites (human liver microsomes [4]; [19]): 1.359 peak area/incubation time; Contribution of CYPs other than CYP3A4 to formation of the metabolite in human liver (CYPs in human liver): less than 1%; IC50 (RET): > 1000 nM
4 | – | – | – | – | – | – | – | – | – | – | – | – | – | – | – | – | – | – | – | – | CC(=O)N1CCN(c2ccc(OCC3COC(Cn4ccnc4)(c4ccc(Cl)cc4Cl)O3)cc2)CC1 (centres unmarked) [ketoconazole] | IC50 at 20 min [5]: < 10 nM; IC50 at 20 min [6]: < 10 nM; IC50 at 20 min [7]: < 10 nM
